“And” between values parts separate entries of the source, which are not always exact repeats. Equal entries are not always repeated. After the bases stand the sugars from the 5' end (letter, count) and the backbone: PS all phosphorothioate, else s phosphorothioate and o phosphodiester by linkage. HELM strings list units from the 5' end as sugar, base in round brackets, then linkage (d deoxyribose, r ribose, m 2'-O-methyl, p phosphodiester). Methylation of C is not given here. [moe] = 2'-O-(2-methoxyethyl) (MOE); [cEt] = constrained ethyl (cEt); [sp] = phosphorothioate linkage; e = 2'-O-(2-methoxyethyl) (MOE); k = constrained ethyl (cEt); d = 2'-deoxy (DNA)
Legend:
IRF5 = details: ASO
HBV = details: ASO

Substance	target mRNA inhibition (IRF5; KARPAS-229, 4 µM)	further results
GGTCTGGCCCTTTTGG (sugars kkddddddddddkeke, PS)	0%	–
GGTCTTGACCTCCCGC (sugars kddddddddddkekek, PS)	37%	–
GGTCTTTGAGGTCTGG (sugars k2 d8 e4 k2, PS)	56%	–
GGTCTTTGAGGTCTGG (sugars k3 d9 k3 e1, PS)	33%	–
GGTCTTTGAGGTCTGG (sugars kkddddddddkekekk, PS)	52%	–
GGTGTATTTCCCTGTC (sugars k3 d9 k3 e1, PS)	0%	–
GGTGTATTTCCCTGTC (sugars kdddddddddkekeke, PS)	0%	–
GGTGTATTTCCCTGTC (sugars kkddddddddkekekk, PS)	0%	–
GGTTCTTGGACTCTCA (sugars k2 d8 e4 k2, PS)	54% and 64%	target mRNA inhibition (IRF5; KARPAS-229, 0.44444 µM): 25%; target mRNA inhibition (IRF5; KARPAS-229, 1.33333 µM): 51%; target mRNA inhibition (IRF5; KARPAS-229, 12 µM): 77%
GGTTCTTGGACTCTCA (sugars k2 d9 e3 k2, PS)	48% and 73%	target mRNA inhibition (IRF5; KARPAS-229, 0.44444 µM): 46%; target mRNA inhibition (IRF5; KARPAS-229, 1.33333 µM): 64%; target mRNA inhibition (IRF5; KARPAS-229, 12 µM): 84%
GGTTCTTGGACTCTCA (sugars kkdddddddddkekek, PS)	0%	–
GGTTCTTGGACTCTCA (sugars kkkddddddddkdkdk, PS)	28%	–
GTCTGGCCCTTTTGGA (sugars k2 d8 e4 k2, PS)	0%	–
GTCTGGCCCTTTTGGA (sugars kkdddddddddkekek, PS)	0%	–
GTCTTGACCTCCCGCT (sugars k2 d8 e4 k2, PS)	34%	–
GTCTTGACCTCCCGCT (sugars k2 d9 e3 k2, PS)	54% and 41%	target mRNA inhibition (IRF5; KARPAS-229, 0.44444 µM): 22%; target mRNA inhibition (IRF5; KARPAS-229, 1.33333 µM): 32%; target mRNA inhibition (IRF5; KARPAS-229, 12 µM): 58%
GTCTTGACCTCCCGCT (sugars kkddddddddkekekk, PS)	26%	–
GTGACTGTATTACCTA (sugars k3 d10 k3, PS)	62% and 70%	target mRNA inhibition (IRF5; KARPAS-229, 0.44444 µM): 9%; target mRNA inhibition (IRF5; KARPAS-229, 1.33333 µM): 39%; target mRNA inhibition (IRF5; KARPAS-229, 12 µM): 81%
GTGAGACGAGCAAAGG (sugars k3 d10 k3, PS)	49% and 74%	target mRNA inhibition (IRF5; KARPAS-229, 0.44444 µM): 60%; target mRNA inhibition (IRF5; KARPAS-229, 1.33333 µM): 49%; target mRNA inhibition (IRF5; KARPAS-229, 12 µM): 77%
GTGAGTCTCAAACCAG (sugars k3 d9 k3 e1, PS)	44% and 50%	target mRNA inhibition (IRF5; KARPAS-229, 0.44444 µM): 23%; target mRNA inhibition (IRF5; KARPAS-229, 1.33333 µM): 39%; target mRNA inhibition (IRF5; KARPAS-229, 12 µM): 59%
GTGAGTCTCAAACCAG (sugars k3 d10 k3, PS)	9%	–
GTGAGTCTCAAACCAG (sugars kdddddddddkekeke, PS)	0%	–
GTGAGTCTCAAACCAG (sugars kkdddddddddkekek, PS)	0%	–
GTGTATTTCCCTGTCT (sugars k2 d8 e4 k2, PS)	0%	–
GTGTATTTCCCTGTCT (sugars k3 d9 k3 e1, PS)	30%	–

Substance	target mRNA inhibition (IRF5; KARPAS-229, 4 µM)	further results
GTGTATTTCCCTGTCT (sugars kkdddddddddkdkdk, PS)	0%	–
GTTATCTCCGTCCTGG (sugars kekdddddddddeekk, PS)	13%	–
GTTATCTCCGTCCTGG (sugars kkdddddddddkekek, PS)	0%	–
GTTATCTCCGTCCTGG (sugars kkddddddddkekekk, PS)	0%	–
GTTATCTCCGTTCCTGG (sugars kkkdddddddddkeked, PS)	0%	–
GTTATCTCCGTTCCTGG (sugars kkkddddddddkekekd, PS)	0%	–
GTTCTTGGACTCTCAA (sugars k2 d8 e4 k2, PS)	8%	–
GTTCTTGGACTCTCAA (sugars kkddddddddddkeke, PS)	27%	–
GTTCTTGGACTCTCAA (sugars kkdddddddddkekek, PS)	31%	–
RNA1{[moe](A)[sp].[cEt](A)[sp].[cEt](G)[sp].d(A)[sp].d(A)[sp].d(G)[sp].d(A)[sp].d(T)[sp].d(G)[sp].d(A)[sp].d(G)[sp].d(G)[sp].d(C)[sp].[cEt](A)[sp].[cEt](T)[sp].[moe](A)}$$$$V2.0	–	target mRNA inhibition (HBV; HepG2, 0.07 µM): 62% and 65%
RNA1{[moe](A)[sp].[cEt](A)[sp].[moe](G)[sp].[cEt](C)[sp].d(G)[sp].d(A)[sp].d(A)[sp].d(G)[sp].d(T)[sp].d(G)[sp].d(C)[sp].d(A)[sp].d(C)[sp].[moe](A)[sp].[moe](C)[sp].[moe](G)[sp].[moe](G)}$$$$V2.0	–	target mRNA inhibition (HBV; HepG2, 0.009375 µM): 29%; target mRNA inhibition (HBV; HepG2, 0.01875 µM): 30%; target mRNA inhibition (HBV; HepG2, 0.0375 µM): 41%; target mRNA inhibition (HBV; HepG2, 0.075 µM): 71%; target mRNA inhibition (HBV; HepG2, 0.15 µM): 86%; target mRNA inhibition (HBV; HepG2, 0.3 µM): 88%
RNA1{[moe](A)[sp].[cEt](A)[sp].d(C)[sp].d(C)[sp].d(A)[sp].d(C)[sp].d(T)[sp].d(G)[sp].d(A)[sp].d(A)[sp].d(C)[sp].d(A)[sp].[cEt](A)[sp].[moe](A)[sp].[cEt](T)[sp].[moe](G)}$$$$V2.0	–	target mRNA inhibition (HBV; HepG2, 0.07 µM): 55% and 38%
RNA1{[moe](A)[sp].[cEt](A)[sp].d(C)[sp].d(T)[sp].d(G)[sp].d(G)[sp].d(A)[sp].d(G)[sp].d(C)[sp].d(C)[sp].d(A)[sp].d(C)[sp].[cEt](C)[sp].[moe](A)[sp].[cEt](G)[sp].[moe](C)}$$$$V2.0	–	target mRNA inhibition (HBV; HepG2, 0.07 µM): 65% and 53%
RNA1{[moe](A)[sp].[cEt](C)[sp].[cEt](A)[sp].d(A)[sp].d(A)[sp].d(T)[sp].d(G)[sp].d(G)[sp].d(C)[sp].d(A)[sp].d(C)[sp].d(T)[sp].d(A)[sp].[cEt](G)[sp].[cEt](T)[sp].[moe](A)}$$$$V2.0	–	target mRNA inhibition (HBV; HepG2, 0.07 µM): 67% and 61%
RNA1{[moe](A)[sp].[cEt](C)[sp].d(C)[sp].d(A)[sp].d(A)[sp].d(T)[sp].d(T)[sp].d(T)[sp].d(A)[sp].d(T)[sp].d(G)[sp].d(C)[sp].[cEt](C)[sp].[moe](T)[sp].[cEt](A)[sp].[moe](C)}$$$$V2.0	–	target mRNA inhibition (HBV; HepG2, 0.07 µM): 40% and 51%
RNA1{[moe](A)[sp].[cEt](C)[sp].d(C)[sp].d(A)[sp].d(C)[sp].d(T)[sp].d(G)[sp].d(A)[sp].d(A)[sp].d(C)[sp].d(A)[sp].d(A)[sp].[cEt](A)[sp].[moe](T)[sp].[cEt](G)[sp].[moe](G)}$$$$V2.0	–	target mRNA inhibition (HBV; HepG2, 0.07 µM): 75% and 64%
RNA1{[moe](A)[sp].[cEt](G)[sp].[cEt](A)[sp].d(A)[sp].d(G)[sp].d(A)[sp].d(T)[sp].d(G)[sp].d(A)[sp].d(G)[sp].d(G)[sp].d(C)[sp].d(A)[sp].[cEt](T)[sp].[cEt](A)[sp].[moe](G)}$$$$V2.0	–	target mRNA inhibition (HBV; HepG2, 0.07 µM): 64% and 63%
RNA1{[moe](A)[sp].[cEt](G)[sp].[cEt](A)[sp].d(A)[sp].d(G)[sp].d(T)[sp].d(C)[sp].d(C)[sp].d(A)[sp].d(C)[sp].d(C)[sp].d(A)[sp].d(C)[sp].[cEt](G)[sp].[cEt](A)[sp].[moe](G)}$$$$V2.0	–	target mRNA inhibition (HBV; HepG2, 0.07 µM): 58% and 48%
TAGTGTCATGGAATTT (sugars k3 d10 k3, PS)	38%	–
TCACCACTGTGTACCC (sugars kkdddddddddkekek, PS)	0%	–
TCACCACTGTGTACCC (sugars kkddddddddkekekk, PS)	0%	–
TCACCACTGTGTACCC (sugars kkkddddddddkekek, PS)	0%	–
TCCAATTTTGCATTCC (sugars kkkdddddddddkeke, PS)	14%	–
TCCAATTTTGCATTCC (sugars kkkddddddddkdkdk, PS)	32%	–
TCTGCAGGGAGTCAGA (sugars k3 d10 k3, PS)	0%	–

Substance	target mRNA inhibition (IRF5; KARPAS-229, 4 µM)	further results
TCTGGCCCTTTTGGAA (sugars kkddddddddkekekk, PS)	0%	–
TGAATTTTGTGACTGT (sugars k3 d10 k3, PS)	64% and 70%	target mRNA inhibition (IRF5; KARPAS-229, 0.44444 µM): 32%; target mRNA inhibition (IRF5; KARPAS-229, 1.33333 µM): 59%; target mRNA inhibition (IRF5; KARPAS-229, 12 µM): 81%
TGAGACGAGCAAAGGG (sugars k3 d10 k3, PS)	22%	–
TGAGTCATGGAGCTGAG (sugars k2 d9 e3 k2 d1, PS)	16%	–
TGAGTCATGGGCTGAG (sugars k3 d10 k3, PS)	0%	–
TGAGTCATGGGCTGAG (sugars kkddddddddddkeke, PS)	0%	–
TGAGTCATGGGCTGAG (sugars kkkdddddddddkeke, PS)	17%	–
TGAGTCTCAAACCAGG (sugars k3 d9 k3 e1, PS)	0%	–
TGAGTCTCAAACCAGG (sugars k3 d10 k3, PS)	16%	–
TGCACTGACACAGGCG (sugars k3 d9 k3 e1, PS)	0%	–
TGCACTGACACAGGCG (sugars kkddddddddddkeke, PS)	16%	–
TGCACTGACACAGGCG (sugars kkdddddddddkdkdk, PS)	0%	–
TGTCTAGTGTCATGGA (sugars k3 d9 k3 e1, PS)	39%	–
TGTCTAGTGTCATGGA (sugars kkdddddddddkdkdk, PS)	40%	–
TTATCTCCGTCCTGGC (sugars k3 d9 k3 e1, PS)	0%	–
TTATTTCTGCTCCAGG (sugars k3 d10 k3, PS)	55% and 77%	target mRNA inhibition (IRF5; KARPAS-229, 0.44444 µM): 51%; target mRNA inhibition (IRF5; KARPAS-229, 1.33333 µM): 66%; target mRNA inhibition (IRF5; KARPAS-229, 12 µM): 84%
TTATTTCTGCTCCAGG (sugars kddddddddddkekek, PS)	0%	–
TTATTTCTGCTCCAGG (sugars kkdddddddddkekek, PS)	9%	–
TTCTGCAGGGAGTCAG (sugars k3 d10 k3, PS)	0%	–
TTGTCTAGTGTCATGG (sugars kdddddddddkekeke, PS)	8%	–
TTGTCTAGTGTCATGG (sugars kkdddddddddkekek, PS)	24%	–
TTTCTTGTCTAGTGTC (sugars k3 d10 k3, PS)	53%	–
TTTGCTCTAAACCATT (sugars k3 d10 k3, PS)	2%	–
